Laboratory results published in patent publication US6686381B2, “Thiazole derivatives” (Hoffmann-La Roche Inc., priority 2002, dated 2004).
pIC50: −log10 of the molar value.

Molecular target: T1, mouse NPY5-receptor (mNPY5) (Mus musculus, UniProt O70342)
T1 construct: The full-length cDNA encoding the mouse NPY5 (mNPY5) receptor was amplified from mouse brain cDNA; expressed in transfected cells; membranes used
T1 sequence (O70342 1-466): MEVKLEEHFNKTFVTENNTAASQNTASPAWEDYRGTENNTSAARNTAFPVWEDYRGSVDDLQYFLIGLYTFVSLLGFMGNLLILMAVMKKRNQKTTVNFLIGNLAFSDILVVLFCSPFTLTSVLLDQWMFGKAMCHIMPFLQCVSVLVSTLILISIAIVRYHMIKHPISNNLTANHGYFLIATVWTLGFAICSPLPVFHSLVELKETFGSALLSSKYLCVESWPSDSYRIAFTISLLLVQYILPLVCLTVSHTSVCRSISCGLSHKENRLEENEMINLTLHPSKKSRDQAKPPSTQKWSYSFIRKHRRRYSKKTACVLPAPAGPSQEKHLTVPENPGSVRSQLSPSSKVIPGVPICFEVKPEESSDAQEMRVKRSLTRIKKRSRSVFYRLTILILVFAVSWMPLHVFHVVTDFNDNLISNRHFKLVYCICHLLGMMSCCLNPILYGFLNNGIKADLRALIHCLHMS
Experiment: Radioligand competition binding
Conditions: membranes of HEK293 cells expressing recombinant mNPY5; 100 pM [125I]labelled peptide YY; 1 h at 22° C.
From the text: Cloning of Mouse NPY5 Receptor cDNAs:
The full-length cDNA encoding the mouse NPY5 (mNPY5) receptor was amplified from mouse brain cDNA using specific primers, designed based on the published sequence, and Pfu DNA-Polymerase. The amplification product was subcloned into the mammalian expression vector pcDNA3 using EcoRI and XhoI restriction sites. Positive clones were sequenced and one clone, encoding the published sequence (see Borowsky, B., et al., Molecular biology and pharmacology of multiple NPY Y5 receptor species homologs, Regul. Pept. (1998) 75-76:45-53) was selected for generation of stable cell clones.
Human embryonic kidney 293 (HEK293) cells were transfected with 10 μg mNPY5 DNA using the lipofectamine reagent (Gibco BRL) according to the manufacturer's instruction. Two days after transfection, geneticin selection (1 mg/ml) was initiated and several stable clones were isolated. One clone was further used for pharmacological characterization.
Radioligand Competition Binding:
Human embryonic kidney 293 cells (HEK293), expressing recombinant mouse NPY5-receptor (mNPY5) were broken by three freeze/thawing cycles in hypotonic Tris buffer (5 mM, pH 7.4, 1 mM MgCl2), homogenized and centrifuged at 72,000×g for 15 min. […] Protein was determined according to the method of Lowry using bovine serum albumine (BSA) as a standard. […]

| SMILES | pIC50 |
| --- | --- |
| COc1ccc(C)cc1S(=O)(=O)NCCCNc1nc(C(=O)c2ccccc2C)cs1 [Example 140, 2-Methoxy-5-methyl-N-{3-[4-(2-methyl-benzoyl)-thiazol-2-ylamino]-propyl}-benzenesulfonamide] | 8.22 |
| O=C(c1ccccn1)c1cnc(NCCCNS(=O)(=O)c2ccccc2F)s1 [Example 1, 2-Fluoro-N-{3-[5-(pyridine-2-carbonyl)-thiazol-2-ylamino]-propyl}-benzenesulfonamide] | 8.27 |
